Tests used:
[1] = tested on: AM fungi (mixed INVAM inoculum); assay: Pot study: AM fungal spore production in steamed ML soil/sand with INVAM inoculum, planted or unplanted; type: in vivo; details: for AM Fungal Spores per 100 g soil: 80 ppm treatment P, end of study at 66 days, start 408 spores per 100 g; for increase in spore population from the start of the study: planted with yellow sweet clover; for increase in spore population from the start of the study / increase in spore population at 66 days over the levels at time 0: 66 days vs 408 spores per 100 g at time 0
Text: (§1) This Example is an un-replicated study to examine whether PO3^−3 (phosphite) impacts spore production and infection rate of AM fungi. The fungi were a mixed inoculum source from the University of West Virginia (UWV). UWV holds and maintains the International Culture Collection of (Vesicular) Arbuscular Mycorrhizal Fungi (INVAM). The plant used was yellow blossom sweet clover (Melilotus officinalis). All pots were inoculated, but only half were planted. Each Experimental unit was a 20 cm pot. Substrate for the units were a soil, sand, and inoculum mixture.
A known AM fungal inoculum was obtained from The International Culture Collection of (Vesicular) Arbuscular Mycorrhizae (invam.wvu.edu, Director Matt Kasson) maintained at the University of West Virginia in Morgantown, WV, US. A mixed culture of four AM fungal species was ordered. The mixture contained 250 ml of soil inoculum of each species. The total weight the entire mixed sample was 1345 grams and thus a bulk density of the sample of 1.345 g/ml. The material received contained the following species: Claroideoglomus etunicatum., Accession number AZ 201C (initially described by Becker W. N. and Gerdemann J. W., Mycotaxon, 6:29, 1977, as Glomus etunicatum.), spores were orange to red-brown, globose, subglobose; 60-160 μm diameter; mean 129 μm (n=120); Rhizophagus clarus, Accession number AZ 151D (initially described by Schenck, N. Mycologia, 71:182, 1979, as Glomus clarum.), spores are from white to yellow brown with many pale yellow to pale yellow brown, 100 to 260 μm diameter, mean 182 μm (n=120); Rhizophagus intraradices, Accession number AZ 123 (initially described by Schenck, N. Mycologia, 74:78, 1982, as Glomus intraradices), spores were white, pale cream, to yellow, brown, sometimes with a green hint, globose, subglobose, irregular. 40 to 140 μm diameter, mean 93.3 (n=170); and Septoglomus deserticola, Accession number CA 113 (initially described by Trappe J. Bluss and Menge J., 1984, Mycotaxon, 20:123, 1984, as Glomus deserticola), spores are orange-brown to dark red brown, most are reddish brown, globose to subglobose, sometimes irregular, 60 to 140 μm diameter.
(§2) The present example was designed as a pot experiment where each pot was a treatment, the treatments being untreated controls, units treated with phosphate, and units treated with phosphite. All pots were a mixture of steamed ML soil, sand, and inoculum. Control units (pots) received no other treatment. Phosphate pots were treated with K2HPO4. Phosphite pots were treated with an equivalent molarity (concentration) of P as K2HPO3.
(§3) Half of the pots (a control, phosphate, and phosphite treatments) were planted with yellow sweet clover seed. The other half of the pots (also a control, phosphate, and phosphite treatment) were not planted with any plants.
Phosphate and phosphite were added to the soil materials such that the phosphorus in each would constitute 80 mg per kg of soil (Table 6). This is more than was added to the field experimental plots described in Example 3. However, the results of that experiment (Example 4) did show a response of the AM fungi to phosphite. In Example 4, phosphorous either as phosphate or phosphite, was added at 61.53 ppm. In Example 4, there was no apparent inhibition of infection or spore production by addition of phosphorus. The level of P was raised to 80 mg per kg in this example to accentuate the impact of added P on the AM fungi. Each pot described in Table 6 contained 3.022.5 g of soil material (soil plus sand and inoculum).
The various treatment substrates, i.e., soil, sand, and inoculum, were mixed in batches. The control batch was established and mixed for the control treatments. Likewise, the phosphate and phosphite batches were mixed, respectively, for all phosphate and phosphite treatments. The treatments salts (K2HPO4 and K2HPO3) were added as 400 ml aqueous solution (chemical in distilled water to 400 ml). […]

[2] = tested on: AM fungi infection of yellow sweet clover (Melilotus officinalis) roots; assay: Pot study: AM infection level of yellow sweet clover roots; type: in vivo; details: YBSC plants; 80 ppm treatment P; 66 days; infected 1.1 mm root segments per 80 examined
Text: as §1, §2, §3
Phosphate and phosphite were added to the soil materials such that the phosphorus in each would constitute 80 mg per kg of soil (Table 6). […]

[3] = YBSC (yellow sweet clover) plants

In the case of `OP(O)O` [PO3, dipotassium phosphite], the “AM Fungal Spores per 100 g soil” value [1, 3] is reported as 4,598 per 100 g soil, the “AM Fungal Spores per 100 g soil” value ([1]; no plants) is reported as 7,301 per 100 g soil and the “increase in spore population from the start of the study” value [1] is reported as 1,127%. The “mature brownish reddish spores” value ([1]; planted, 66 days) was 3,480 per 100 g soil, the “small, immature spores” value ([1]; planted, 66 days) was 217 per 100 g soil and the “light colored to white spores” value ([1]; unplanted, 66 days) was 1,429 spores per 100 g soil. For the same compound, the “mature brownish reddish spores” value ([1]; unplanted, 66 days) was 4,287 per 100 g soil, the “small, immature spores” value ([1]; unplanted, 66 days) was 1,585 per 100 g soil and the “increase in spore population at 66 days over the levels at time 0” value ([1]; unplanted) was 1,789%. For the same compound, the “AM Infection level, %” value [2] was 35%.

For `O=P([O-])([O-])O.[K+].[K+]` [PO4, dipotassium phosphate], the “AM Fungal Spores per 100 g soil” value [1, 3] was 7,146 per 100 g soil, the “AM Fungal Spores per 100 g soil” value ([1]; no plants) was 5,220 per 100 g soil and the “increase in spore population from the start of the study” value [1] was 1,751%. The “mature brownish reddish spores” value ([1]; planted, 66 days) was 2,827 per 100 g soil, the “small, immature spores” value ([1]; planted, 66 days) was 3,604 per 100 g soil and the “mature brownish reddish spores” value ([1]; unplanted, 66 days) was 2,237 per 100 g soil. For the same compound, the “small, immature spores” value ([1]; unplanted, 66 days) was 2,548 per 100 g soil, the “increase in spore population at 66 days over the levels at time 0” value ([1]; unplanted) was 1,279% and the “AM Infection level, %” value [2] was 47.5%.
